Results published in ChEMBL document CHEMBL1201862, “PubChem BioAssay data set” (2004).
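Growth conditions: 96-well plates. Treatment: test compound, 48 hours, 5 concentrations. Analysis: linear interpolation between bracketing concentrations; unreached endpoints set to highest concentration. GI50: concentration for 50% inhibition of growth.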 Active and inactive are the calls of the source. No stated cut-off is given here; in the data, active = GI50 up to about 1.1 µM and inactive = higher.

What was measured:
Test in all cases: DTP human tumour cell line panel, 48 h
Malme-3M = test system: Malme-3M
ACHN = test system: ACHN
NCI-H226 = test system: NCI-H226
HCT-15 = test system: HCT-15
U-251 = test system: U-251
SF-268 = test system: SF-268
HOP-62 = test system: HOP-62
SK-MEL-28 = test system: SK-MEL-28
UO-31 = test system: UO-31
DU-145 = test system: DU-145
NCI/ADR-RES = test system: NCI/ADR-RES
LXFL 529 = test system: LXFL 529
HT-29 = test system: HT-29
LOX IMVI = test system: LOX IMVI
HCC 2998 = test system: HCC 2998
IGROV-1 = test system: IGROV-1
BT-549 = test system: BT-549
K562 = test system: K562
RPMI-8226 = test system: RPMI-8226
HCT-116 = test system: HCT-116

| SMILES | GI50 (Malme-3M) | GI50 (ACHN) | GI50 (NCI-H226) | GI50 (HCT-15) [µM] | GI50 (U-251) | GI50 (SF-268) | GI50 (HOP-62) | GI50 (SK-MEL-28) | GI50 (UO-31) | GI50 (DU-145) | GI50 (NCI/ADR-RES) | GI50 (LXFL 529) | GI50 (HT-29) | GI50 (LOX IMVI) | GI50 (HCC 2998) | GI50 (IGROV-1) | GI50 (BT-549) | GI50 (K562) | GI50 (RPMI-8226) | GI50 (HCT-116) |
| --- | --- | --- | --- | --- | --- | --- | --- | --- | --- | --- | --- | --- | --- | --- | --- | --- | --- | --- | --- | --- |
| O=C1c2ccccc2C(=O)c2c1ccc1conc21 | 2.48 µM (inactive) | 1.94 µM (inactive) | 7.06 µM (inactive) | 2.75 | 1.62 µM (inactive) | 2.56 µM (inactive) | 4.3 µM (inactive) | 3.41 µM (inactive) | 4.33 µM (inactive) | 2.59 µM (inactive) | 0.649 µM (active) | 1.8 µM (inactive) | 4.37 µM (inactive) | 0.469 µM (active) | 15.8 µM (inactive) | 2.98 µM (inactive) | 1.91 µM (inactive) | 1.85 µM (inactive) | 0.875 µM (active) | 1.52 µM (inactive) |
| O=C(OCCCl)C1OC(n2cc(F)c(=O)[nH]c2=O)CC1O (stereo not given) | > 100 µM (inactive) | > 100 µM (inactive) | > 100 µM (inactive) | > 100 | > 100 µM (inactive) | > 100 µM (inactive) | > 100 µM (inactive) | > 100 µM (inactive) | > 100 µM (inactive) | – | – | > 100 µM (inactive) | > 100 µM (inactive) | > 100 µM (inactive) | 27.7 µM (inactive) | > 100 µM (inactive) | – | > 100 µM (inactive) | > 100 µM (inactive) | > 100 µM (inactive) |
| N#CCCN(CCC#N)c1ccc(/C=C2\N=C(CN3C(=O)c4ccccc4C3=O)OC2=O)cc1 | > 100 µM (inactive) | > 100 µM (inactive) | > 100 µM (inactive) | > 100 | > 100 µM (inactive) | > 100 µM (inactive) | > 100 µM (inactive) | > 100 µM (inactive) | > 100 µM (inactive) | – | – | > 100 µM (inactive) | > 100 µM (inactive) | > 100 µM (inactive) | > 100 µM (inactive) | > 100 µM (inactive) | – | > 100 µM (inactive) | 39.3 µM (inactive) | > 100 µM (inactive) |
| Cc1cc(C)nc(NS(=O)(=O)c2ccc(Nc3c4ccc(Cl)cc4nc4c(C(=O)NCCN(C)C)cccc34)cc2)n1 | > 100 µM (inactive) | > 100 µM (inactive) | > 100 µM (inactive) | > 100 | > 100 µM (inactive) | > 100 µM (inactive) | > 100 µM (inactive) | > 100 µM (inactive) | > 100 µM (inactive) | – | – | > 100 µM (inactive) | > 100 µM (inactive) | > 100 µM (inactive) | > 100 µM (inactive) | > 100 µM (inactive) | – | 59.2 µM (inactive) | > 100 µM (inactive) | > 100 µM (inactive) |
| O=C1C2c3[nH]c4ccccc4c3C3CCCCCC3C2C(=O)N1c1ccccc1 (stereo not given) | 9.31 µM (inactive) | 39.6 µM (inactive) | 21.3 µM (inactive) | > 47 | 18.7 µM (inactive) | 39.2 µM (inactive) | 16.9 µM (inactive) | > 59.8 µM (inactive) | 38.2 µM (inactive) | – | – | > 86.9 µM (inactive) | > 57.7 µM (inactive) | 14.9 µM (inactive) | > 56.1 µM (inactive) | 21.8 µM (inactive) | – | > 55 µM (inactive) | > 100 µM (inactive) | 11.2 µM (inactive) |
| COCc1c(CO)cnc(C)c1OC1OC(CO)C(O)C(O)C1O (stereo not given) | > 100 µM (inactive) | > 100 µM (inactive) | > 100 µM (inactive) | > 100 | > 100 µM (inactive) | > 100 µM (inactive) | > 100 µM (inactive) | > 100 µM (inactive) | > 100 µM (inactive) | – | – | > 100 µM (inactive) | > 100 µM (inactive) | > 100 µM (inactive) | > 100 µM (inactive) | > 100 µM (inactive) | – | > 100 µM (inactive) | > 100 µM (inactive) | > 100 µM (inactive) |
| COC1=CC(=O)C2C(C1=O)C(c1ccc(OC)c(OC)c1)[C@H]2C (stereo not given in full) | 19.6 µM (inactive) | 18.7 µM (inactive) | > 100 µM (inactive) | 18.2 | > 100 µM (inactive) | > 100 µM (inactive) | > 100 µM (inactive) | 20.3 µM (inactive) | > 100 µM (inactive) | – | – | 17.3 µM (inactive) | 31.8 µM (inactive) | 22.9 µM (inactive) | > 100 µM (inactive) | > 100 µM (inactive) | – | 23.4 µM (inactive) | 14.6 µM (inactive) | 18 µM (inactive) |
| CCOc1ccc(/C=C/c2cc(OC)c(OC)c(OC)c2)cc1 | 0.893 µM (active) | 1.56 µM (inactive) | 2.45 µM (inactive) | 0.869 | 0.867 µM (active) | 2.18 µM (inactive) | 0.392 µM (active) | 0.83 µM (active) | 17.1 µM (inactive) | – | – | 0.809 µM (active) | 0.653 µM (active) | 1.59 µM (inactive) | 1.14 µM (inactive) | 2.19 µM (inactive) | – | 0.458 µM (active) | 0.601 µM (active) | 0.561 µM (active) |
| COC(=O)c1cc(O)ccc1O [METHYL 2,5-DIHYDROXYBENZOATE] | > 100 µM (inactive) | > 100 µM (inactive) | > 100 µM (inactive) | > 100 | > 100 µM (inactive) | > 100 µM (inactive) | > 100 µM (inactive) | > 100 µM (inactive) | > 100 µM (inactive) | – | – | > 100 µM (inactive) | > 100 µM (inactive) | > 100 µM (inactive) | > 100 µM (inactive) | > 100 µM (inactive) | – | > 100 µM (inactive) | > 100 µM (inactive) | – |
